Laboratory results taken from US6380167B1, “Methods for anti-tumor therapy” (priority 1999, dated 2002).
“Also recorded” adds a separate entry of the source. Like-named read-outs stand apart in the source and are kept apart here.

Tests used:
[1] = system: patient tumor cells; test: Comparison of cardiac glycosides in the anti-tumor assays; type: cell-based, human; settings: cardiac glycosides tested
Protocol: Alamer Blue (Accumed International, Westlake Ohio) was then added to the cells at 1/10 the volume of the well, and the cells were further incubated at 37° C. for various times. Alamer Blue dye measures cellular re-dox reactions (ie: cellular respiration) whereby a spectral shift occurs upon reduction of the dye. (Excitation 530 nm; emission 590 nm)
The kinetics of cellular re-dox reactions were subsequently measured at various times, for example at 3 hours, 3 days, and 5 days post-dye addition.

[2] = system: cells derived from ovarian tumor tissue; test: Alamer Blue cellular respiration assay on cells derived from ovarian tumor tissue; type: cell-based; settings: Homo sapiens
Source text: (§1) Excess tissue specimens obtained from a variety of organs and tissues such as colon, lung, kidney, stomach, and buttocks were obtained freshly at the time of surgery and samples were sent for pathological testing. For diagnosis and grading of tissue samples (ie: prior to processing), hematoxylin and eosin stained tissue sections were examined by a pathologist. If the diagnosis and grading of the tissue concurred with the determination made by the surgical pathologist that provided the tissue, then the tissue was used in the screen. If there was no agreement, then two additional pathologists served as referees. If no consensus was reached, then the tissue was discarded. […]
(§2) After tissue processing, the relative purity of the resulting cell suspension was determined by cytological examination after pap staining. […]
(§3) Cell preparations that passed histological and cytological examination for diagnosis, grading, and cell purity were thawed at 37° C. and resuspended in tissue culture medium designed to maintain the cells during the incubation period. The live and dead cells were counted and the cells were diluted in culture medium to 4.0×10^4 live cells/ml for tumor cells and 1.32×10^5 live cells/ml for normal cells. […]
(§4) The kinetics of cellular re-dox reactions were subsequently measured at various times, for example at 3 hours, 3 days, and 5 days post-dye addition. […]

[3] = system: cells isolated from sarcoma patients; test: Alamer Blue cellular respiration assay on cells isolated from sarcoma patients; type: cell-based; settings: Homo sapiens
Source text: as §1, §2, §3, §4

[4] = toxic at concentrations above; cited from earlier work
[5] = in vivo; cited from earlier work
[6] = range over samples, read-out: IC50 (range)

In the case of `C[C@@H]1O[C@@H](O[C@H]2C[C@@H](O)[C@]3(CO)[C@H]4[C@H](O)C[C@]5(C)[C@@H](C6=CC(=O)OC6)CC[C@]5(O)[C@@H]4CC[C@]3(O)C2)[C@H](O)[C@H](O)[C@H]1O` [oubain], the “activity in the assays compared with digitoxin” value [1] is reported as “equally active”.

With `C[C@H]1O[C@@H](O[C@H]2[C@@H](O)C[C@H](O[C@H]3[C@@H](O)C[C@H](O[C@H]4CC[C@@]5(C)[C@H](CC[C@@H]6[C@@H]5C[C@@H](O)[C@]5(C)[C@@H](C7=CC(=O)OC7)CC[C@]65O)C4)O[C@@H]3C)O[C@@H]2C)C[C@H](O)[C@@H]1O` [digoxin] the “activity in the assays compared with digitoxin” value [1] was “Digitoxin appeared more active in the assays then digoxin”.

In the case of `CC1OC(OC2C(O)CC(O[C@H]3CC[C@]4(C)C5CC[C@]6(C)[C@@H](C7=CC(=O)OC7)CC[C@]6(O)[C@@H]5CC[C@@H]4C3)O[C@@H]2C)C[C@H](O)[C@@H]1OC1CC(O)C(O)[C@@H](C)O1` (some centres unmarked) [digitoxin], the IC50 ([2]; mean, read-out: IC50 (mean)) is reported as 47 nM, the IC50 [2, 6] is reported as 31 to 126 nM and the IC50 ([3]; mean, read-out: IC50 (mean)) is reported as 25 nM. For the same molecule, the IC50 [3, 6] was 13 to 48 nM, the toxic concentration [4] was “above 35 ng/ml; also recorded: approximately 46 nM” and the “bound to plasma proteins” value [5] was “greater than 95%”.
